Laboratory results taken from the NIST ThermoML archive (doi:10.1021/acs.jced.9b00415).

Assay: xn = mol fraction of the nth substance listed
Details: 102 kPa, Liquid; for viscosity: Concentric cylinders viscometry; for mass density: Vibrating tube method

CCCCn1cc[n+](C)c1.CS(=O)(=O)[O-] [1-butyl-3-methylimidazolium methanesulfonate] + CCCCn1cc[n+](C)c1.[Cl-]
Details	mass density [kg/m3]	viscosity [mPa·s]
323.15 K, x1 = 0.3	1098.9	388.2
323.15 K, x1 = 0.4	1106.3	365.5
323.15 K, x1 = 0.5	1116.6	267.1
328.15 K, x1 = 0.1	1076.7	490.5
328.15 K, x1 = 0.2	1086.1	428.3
328.15 K, x1 = 0.3	1096.1	278.2
328.15 K, x1 = 0.4	1103.4	261.8
328.15 K, x1 = 0.5	1113.7	195.6
333.15 K, x1 = 0.1	1074	346.3
333.15 K, x1 = 0.2	1083.4	304.6
333.15 K, x1 = 0.3	1093.3	204.2
333.15 K, x1 = 0.4	1100.6	192.2
333.15 K, x1 = 0.5	1110.9	146.5
333.15 K, x1 = 0.6	1119.1	128
338.15 K, x1 = 0.1	1071.4	250.7
338.15 K, x1 = 0.2	1080.7	222
338.15 K, x1 = 0.3	1090.6	153.2
338.15 K, x1 = 0.4	1097.9	144.3
338.15 K, x1 = 0.5	1108.1	112.1
338.15 K, x1 = 0.6	1116.3	98.76
338.15 K, x1 = 0.7	1124.3	82.97
343.15 K, x1 = 0.1	1068.7	185.6
343.15 K, x1 = 0.2	1078	165.4
343.15 K, x1 = 0.3	1087.9	117.2
343.15 K, x1 = 0.4	1095.2	110.5
343.15 K, x1 = 0.5	1105.3	87.31
343.15 K, x1 = 0.6	1113.5	77.62
343.15 K, x1 = 0.7	1121.5	65.89
343.15 K, x1 = 0.8	1129.7	56.84
348.15 K, x1 = 0.1	1066.1	140.3
348.15 K, x1 = 0.2	1075.4	125.8
348.15 K, x1 = 0.3	1085.2	91.36
348.15 K, x1 = 0.4	1092.5	86.21
348.15 K, x1 = 0.5	1102.6	69.19
348.15 K, x1 = 0.6	1110.7	62.01
348.15 K, x1 = 0.7	1118.6	53.15
348.15 K, x1 = 0.8	1126.8	46.31
348.15 K, x1 = 0.9	1134.4	39.65
353.15 K, x1 = 0.1	1063.5	108.1
353.15 K, x1 = 0.2	1072.8	97.5
353.15 K, x1 = 0.3	1082.5	72.39
353.15 K, x1 = 0.4	1089.7	68.4
353.15 K, x1 = 0.5	1099.8	55.7
353.15 K, x1 = 0.6	1107.9	50.28
353.15 K, x1 = 0.7	1115.7	43.48
353.15 K, x1 = 0.8	1123.9	38.24
353.15 K, x1 = 0.9	1131.4	33.04
358.15 K, x1 = 0.1	1060.9	84.67
358.15 K, x1 = 0.2	1070.1	76.85
358.15 K, x1 = 0.3	1079.8	58.23
358.15 K, x1 = 0.4	1086.9	55.11
358.15 K, x1 = 0.5	1097	45.47
358.15 K, x1 = 0.6	1105	41.33
358.15 K, x1 = 0.7	1112.8	36.03
358.15 K, x1 = 0.8	1120.9	31.96
358.15 K, x1 = 0.9	1128.4	27.85
363.15 K, x1 = 0.1	1058.2	67.42
363.15 K, x1 = 0.2	1067.3	61.54
363.15 K, x1 = 0.3	1077	47.51
363.15 K, x1 = 0.4	1084.1	45.04
363.15 K, x1 = 0.5	1094.1	37.62
363.15 K, x1 = 0.6	1102.1	34.41
363.15 K, x1 = 0.7	1109.9	30.22
363.15 K, x1 = 0.8	1117.9	27.02
363.15 K, x1 = 0.9	1125.3	23.72

CCCCn1cc[n+](C)c1.CS(=O)(=O)[O-] [1-butyl-3-methylimidazolium methanesulfonate] + CCCCn1cc[n+](C)c1.O=[N+]([O-])[O-]
Details	mass density [kg/m3]	viscosity [mPa·s]
303.15 K, x2 = 0.9	1154.3	180.1
308.15 K, x2 = 0.9	1151.1	135.4
313.15 K, x2 = 0.8	1149.3	113.6
313.15 K, x2 = 0.9	1147.9	104
318.15 K, x2 = 0.6	1150.5	103
318.15 K, x2 = 0.7	1148.5	97.85
318.15 K, x2 = 0.8	1146.2	88.38
318.15 K, x2 = 0.9	1144.7	81.49
323.15 K, x2 = 0.6	1147.3	80.7
323.15 K, x2 = 0.7	1145.4	77.05
323.15 K, x2 = 0.8	1143	70.03
323.15 K, x2 = 0.9	1141.6	64.96
328.15 K, x2 = 0.4	1146.9	70.76
328.15 K, x2 = 0.5	1145.4	66.57
328.15 K, x2 = 0.6	1144.1	64.37
328.15 K, x2 = 0.7	1142.2	61.72
328.15 K, x2 = 0.8	1139.9	56.42
328.15 K, x2 = 0.9	1138.5	52.61
333.15 K, x2 = 0.3	1144.9	59.13
333.15 K, x2 = 0.4	1143.8	56.85
333.15 K, x2 = 0.5	1142.2	53.7
333.15 K, x2 = 0.6	1141	52.18
333.15 K, x2 = 0.7	1139.1	50.22
333.15 K, x2 = 0.8	1136.8	46.14
333.15 K, x2 = 0.9	1135.4	43.23
338.15 K, x2 = 0.3	1141.8	48.04
338.15 K, x2 = 0.4	1140.6	46.37
338.15 K, x2 = 0.5	1139.1	43.99
338.15 K, x2 = 0.6	1137.9	42.9
338.15 K, x2 = 0.7	1136	41.44
338.15 K, x2 = 0.8	1133.7	38.25
338.15 K, x2 = 0.9	1132.3	35.99
343.15 K, x2 = 0.3	1138.6	39.58
343.15 K, x2 = 0.4	1137.5	38.34
343.15 K, x2 = 0.5	1136	36.52
343.15 K, x2 = 0.6	1134.8	35.74
343.15 K, x2 = 0.7	1132.9	34.63
343.15 K, x2 = 0.8	1130.6	32.11
343.15 K, x2 = 0.9	1129.3	30.32
348.15 K, x2 = 0.1	1138.3	34.98
348.15 K, x2 = 0.2	1136.8	34.5
348.15 K, x2 = 0.3	1135.5	33.03
348.15 K, x2 = 0.4	1134.4	32.1
348.15 K, x2 = 0.5	1132.9	30.69
348.15 K, x2 = 0.6	1131.7	30.13
348.15 K, x2 = 0.7	1129.9	29.28
348.15 K, x2 = 0.8	1127.6	27.25
348.15 K, x2 = 0.9	1126.2	25.81
353.15 K, x2 = 0.1	1135.2	29.38
353.15 K, x2 = 0.2	1133.6	29.04
353.15 K, x2 = 0.3	1132.4	27.88
353.15 K, x2 = 0.4	1131.3	27.17
353.15 K, x2 = 0.5	1129.8	26.08
353.15 K, x2 = 0.6	1128.6	25.68
353.15 K, x2 = 0.7	1126.8	25.02
353.15 K, x2 = 0.8	1124.5	23.36
353.15 K, x2 = 0.9	1123.2	22.2
358.15 K, x2 = 0.1	1132	24.94
358.15 K, x2 = 0.2	1130.5	24.71
358.15 K, x2 = 0.3	1129.3	23.79
358.15 K, x2 = 0.4	1128.2	23.23
358.15 K, x2 = 0.5	1126.8	22.38
358.15 K, x2 = 0.6	1125.6	22.09
358.15 K, x2 = 0.7	1123.8	21.57
358.15 K, x2 = 0.8	1121.5	20.21
358.15 K, x2 = 0.9	1120.2	19.26
363.15 K, x2 = 0.1	1128.9	21.39
363.15 K, x2 = 0.2	1127.4	21.27
363.15 K, x2 = 0.3	1126.2	20.51
363.15 K, x2 = 0.4	1125.1	20.04
363.15 K, x2 = 0.5	1123.7	19.36
363.15 K, x2 = 0.6	1122.5	19.18
363.15 K, x2 = 0.7	1120.7	18.76
363.15 K, x2 = 0.8	1118.5	17.63
363.15 K, x2 = 0.9	1117.2	16.86
